Experiments:
ischemic myocardium = assay: Inotropic function and arrhythmias of ischemic isolated rat heart during reperfusion; details: for Diastolic Pressure in Ischemic Left Ventricle (% of Preischemic Mean Value) / Evolving Pressure in Ischemic Left Ventricle (% of Preischemic Mean Value) / Heart Rate during Reperfusion (% of Preischemic Mean Value) / Maximal Rate of Increase of Left Ventricle Pressure (% of Preischemic Mean Value) / Maximal Rate of Left Ventricle Pressure Decrease (% of Preischemic Mean Value) / Systolic Pressure in Ischemic Left Ventricle (% of Preischemic Values): 14.0 mg/l
Source text: Rat hearts were surgically isolated from white random-bred rats weighing approximately 250 g. The isolated hearts were perfused with a standard oxygenated (95% O2 and 5% CO2) Krebs-Henseleit solution in a retrograde manner (i.e., according to Langendorff and using a constant perfusate pressure of 80 cm of water). The hearts maintained a steady spontaneous contraction rate. A latex balloon catheter connected to a pressure transducer (EMT-746, Siemens-Elema, Sweden) was inserted into the left ventricle of each heart to measure the inotropic function of the heart (as described in Example 3, above). The left ventricle pressure variation curve was recorded using a polygraph.
Stage I ("adaptation regimen") consisted of a 30-minute adaptation of the respective rat hearts to the perfusion regimen. The baseline parameters for the inotropic function of each heart were recorded to establish the preischemic values for the following measured parameters: (i) the systolic pressure in the left ventricle (Psyst. mm Hg); (ii) the diastolic pressure in the left ventricle (Pdiast. mm Hg); (iii) the evolving pressure (Pev. =Psyst. -Pdist. mm Hg); (iv) the maximal rate of increase of left ventricle pressure (+dp/dtmax mm Hg/sec); and (v) the maximal rate of decrease of left ventricle pressure (-dp/dtmax mm Hg/sec). In addition, the heart rate (HR) of each heart was determined from the recordings made of the variations in the left ventricle pressure over time. In Stage II ("ischemic simulation"), ischemia was induced in each heart by shutting off the supply of the perfusion solution to the heart. Approximately 30 minutes later, Stage III ("reperfusion regimen") was initiated by restarting the reperfusion and including in the perfusate solution a test or control substance at one of the following respective concentrations: a perfusate solution of a test substance comprised 0.06, 0.6, or 6.0 mg/l GE, or 0.06, 0.6, or 6.0 mg/l VT, respectively; a perfusate solution of the positive control substance comprised 14 mg/l inosine. Inosine is a nucleoside preparation that produces a favorable inotropic effect on both normal and ischemic myocardium while inducing no rhythm disturbances or acceleration of ischemic contracture development. Woollard et al., Cardiovasc. Res. 15: 659-67 (1981). Inosine was obtained from Sigma Chemical Company, USA (Cat. Code I-4125; lot number 81H0227). The negative control substance comprised reperfusion using a standard oxygenated Krebs-Henseleit solution.
For each heart, the inotropic function of the myocardium was evaluated by measuring the parameters (i) through (v), discussed above, and the heart rate. These six parameters were recorded continuously throughout the study (i.e., beginning with Stage I and continuing through Stage III). The recordings were analyzed at the following times: (a) immediately before beginning Stage II (that is, after the 30-minute Stage I adaptation period, but before stopping perfusion); and (b) at 1, 5, 10, 20, and 30 minutes into the Stage III reperfusion.
The frequency and duration of rhythm disturbances in the 30-minute Stage III reperfusion period were determined by measuring the following parameters: (i) the number of ventricular extrasystoles; (ii) the overall duration of ventricular tachycardias (in seconds); and (iii) the overall duration of ventricular fibrillation (in seconds). Each dose of the test substance was tested on nine isolated hearts.

Isolated Rat Heart = assay: Inotropic function of normal isolated rat heart, Langendorff perfusion; details: dose 0.01 mg
Source text: Rat heart specimens were obtained surgically from white random-bred male rats weighing approximately 250 g. The hearts were established in culture using retrograde heart perfusion according to the Langendorff method performed with a standard oxygenated (95% O2 and 5% CO2) Krebs-Henseleit solution through a glass aorta cannula. The retroperfusion pressure forces the aortic valves shut. In this way, the oxygenated solution passed only through the coronary vasculature of the heart such that both ventricles remain effectively empty. Perfusion conditions: An average constant perfusate flow rate of 15 to 25 ml/min was maintained with a constant perfusate pressure of 80 cm H2 O. Pressure Measurements: A latex balloon catheter connected with a pressure transducer ([…], Sweden) was inserted into the left ventricle of the heart to measure parameters of the inotropic function of the heart. The intraventricle pressure variation curve for the left ventricle was recorded with a polygraph. Experimental Protocol: GE and VT served as the test substances. After a 30-minute adaptation of the heart to the organ culture perfusion conditions, a set of basal (control) measurements was taken, as described in (i) through (v) below. […] See GOODMAN […] THE PHARMACOLOGICAL BASIS OF THERAPEUTICS 160 (Goodman et al., eds., 7th ed. 1985), incorporated herein by reference in its entirety for all purposes. Each dose of each respective test or reference substance was tested on four different rat hearts. The inotropic functions of each of the four rat hearts were evaluated by measuring: (i) the systolic pressure in the left ventricle ([…] diastolic pressure in the left ventricle ([…] evolving pressure (Pev. =[…]); (iv) the maximal rate of increase of left ventricle pressure (+dp/dtmax mm Hg/sec); and (v) the maximal rate of decrease of left ventricle pressure (-dp/dtmax mm Hg/sec). In addition, the heart rate (HR) of each heart was determined from the pressure variation recordings made of the left ventricle pressure.

rats = assay: Arterial blood pressure in anesthetized rats; format: in vivo; details: 5 mg/kg i.v.
Experimental: White random-bred male rats weighing approximately 200 g were employed for this study. Each dose of each respective test or control substance was administered to a group of five rats. GE and VT were employed as test substances and were administered intravenously at doses of 0.01, 0.1, 1.0, and 10.0 mg/kg. Physiological saline (0.2 ml) served as the negative control substance. The ganglionic blocking agent, pentamine, served as the positive control substance and was tested at a dose of 5 mg/kg. Following administration of the test substance, positive control substance, or negative control substance, the arterial blood pressure of each animal was monitored.
Prior to administration of the test or control substance, each animal was anesthetized with Chloralose and then both its carotid artery and jugular vein were catheterized. The carotid catheter was connected to an electronic manometer attached to a computer recorder through an analog-to-digital converter. The mean basal level of the arterial blood pressure was determined as follows: For a period of 30 seconds, the digital signal pertaining to the arterial blood pressure was recorded at 1-second intervals. The mean value of these thirty individual measurements was then determined and recorded.
After determining the mean basal level of the arterial blood pressure, a particular dose of the test or control substance was administered in a volume of 0.2 ml of physiological saline to an animal through the jugular venous catheter. Measurements of the arterial blood pressure were then taken during the next 1.5 hours as follows: (i) during the first 5 minutes, the arterial blood pressure was being monitored continuously and mean values were calculated electronically and recorded at each of the ten different 30-second intervals (i.e., 30th second, 60th second, etc.); (ii) thereafter, mean values of the arterial blood pressure were calculated at the first seconds of 10th minute, 15th minute, 30th minute, 45th minute, 60th minute, 75th minute, and 90th minute after administration of the respective test or control substance.

[1] = 14.1 mg/l, 30-minute reperfusion

## OC[C@H]1O[C@@H](n2cnc3c(O)ncnc32)[C@H](O)[C@@H]1O [Inosine, reference compound]
Ischemic myocardium; 1 min reperfusion
  Diastolic Pressure in Ischemic Left Ventricle (% of Preischemic Mean Value): 92.35%
  Evolving Pressure in Ischemic Left Ventricle (% of Preischemic Mean Value): 57.13%
  Heart Rate during Reperfusion (% of Preischemic Mean Value): 45.37%
  Maximal Rate of Increase of Left Ventricle Pressure (% of Preischemic Mean Value): 50.85%
  Maximal Rate of Left Ventricle Pressure Decrease (% of Preischemic Mean Value): 41.91%
  Systolic Pressure in Ischemic Left Ventricle (% of Preischemic Values): 62.15%
Ischemic myocardium; 5 min reperfusion
  Diastolic Pressure in Ischemic Left Ventricle (% of Preischemic Mean Value): 111.83%
  Evolving Pressure in Ischemic Left Ventricle (% of Preischemic Mean Value): 57.59%
  Heart Rate during Reperfusion (% of Preischemic Mean Value): 69.97%
  Maximal Rate of Increase of Left Ventricle Pressure (% of Preischemic Mean Value): 54.25%
  Maximal Rate of Left Ventricle Pressure Decrease (% of Preischemic Mean Value): 65.94%
  Systolic Pressure in Ischemic Left Ventricle (% of Preischemic Values): 66.17%
Ischemic myocardium; 10 min reperfusion
  Diastolic Pressure in Ischemic Left Ventricle (% of Preischemic Mean Value): 139.32%
  Evolving Pressure in Ischemic Left Ventricle (% of Preischemic Mean Value): 82.33%
  Heart Rate during Reperfusion (% of Preischemic Mean Value): 67.52%
  Maximal Rate of Increase of Left Ventricle Pressure (% of Preischemic Mean Value): 82.35%
  Maximal Rate of Left Ventricle Pressure Decrease (% of Preischemic Mean Value): 78.85%
  Systolic Pressure in Ischemic Left Ventricle (% of Preischemic Values): 86.05%
Ischemic myocardium; 20 min reperfusion
  Diastolic Pressure in Ischemic Left Ventricle (% of Preischemic Mean Value): 148.63%
  Evolving Pressure in Ischemic Left Ventricle (% of Preischemic Mean Value): 94.19%
  Heart Rate during Reperfusion (% of Preischemic Mean Value): 79.97%
  Maximal Rate of Increase of Left Ventricle Pressure (% of Preischemic Mean Value): 83.58%
  Maximal Rate of Left Ventricle Pressure Decrease (% of Preischemic Mean Value): 91.83%
  Systolic Pressure in Ischemic Left Ventricle (% of Preischemic Values): 99.29%
Ischemic myocardium; 30 min reperfusion
  Diastolic Pressure in Ischemic Left Ventricle (% of Preischemic Mean Value): 149.42%
  Evolving Pressure in Ischemic Left Ventricle (% of Preischemic Mean Value): 91.68%
  Heart Rate during Reperfusion (% of Preischemic Mean Value): 75.60%
  Maximal Rate of Increase of Left Ventricle Pressure (% of Preischemic Mean Value): 77.85%
  Maximal Rate of Left Ventricle Pressure Decrease (% of Preischemic Mean Value): 93.88%
  Systolic Pressure in Ischemic Left Ventricle (% of Preischemic Values): 96.62%
Ischemic myocardium; 14 mg/l, after approximately 10 to 20 minutes
  -dp/dtmax, % of preischemic value: about 80%
Ischemic myocardium; [1]
  Number of Ventricular Extrasystoles: 230.4
  Overall Duration of Ventricular Fibrillation: 52.9 s
  Overall Duration of Ventricular Tachycardia: 1.3 s

## CC(C)NCC(O)c1ccc(O)c(O)c1 (stereo not drawn) [Isoproterenol, isoproterenol, reference compound]
Isolated Rat Heart
  +dp/dtmax % of Basal Level: 122%
  +dp/dtmax Subst. Level: 2110 mm Hg/sec
  -dp/dtmax % of Basal Level: 112%
  -dp/dtmax Subst. Level: 1140 mm Hg/sec
  HR % of Basal Level: 133%
  HR abs, Subst. Level: 255 hb/min
  Pdiast % of Basal Level: 120%
  Pdiast abs, Subst. Level: 12 mm Hg
  Pev % of Basal Level: 118%
  Pev Subst. Level: 108 mm Hg
  Psyst % of Basal Level: 117%

## CC[N+](C)(C)CCN(C)CC[N+](C)(C)CC [Pentamine, pentamine, reference compound]
rats; 1 min
  Arterial Blood Pressure (Basal Level = 100.00): 87.09%
rats; 2 min
  Arterial Blood Pressure (Basal Level = 100.00): 68.18%
rats; 3 min
  Arterial Blood Pressure (Basal Level = 100.00): 70.82%
rats; 4 min
  Arterial Blood Pressure (Basal Level = 100.00): 69.29%
rats; 5 min
  Arterial Blood Pressure (Basal Level = 100.00): 74.11%
rats; 10 min
  Arterial Blood Pressure (Basal Level = 100.00): 91.63%
rats; 15 min
  Arterial Blood Pressure (Basal Level = 100.00): 89.94%
rats; 30 min
  Arterial Blood Pressure (Basal Level = 100.00): 86.95%
rats; 45 min
  Arterial Blood Pressure (Basal Level = 100.00): 93.89%
rats; 60 min
  Arterial Blood Pressure (Basal Level = 100.00): 100.31%
rats; 75 min
  Arterial Blood Pressure (Basal Level = 100.00): 94.38%
rats; 90 min
  Arterial Blood Pressure (Basal Level = 100.00): 93.22%

— US5972894A, “Peptides having potassium channel opener activity” (Cytran, Inc., priority 1997, dated 1999)
